Measured values reported in the OligoGym collection.
Oligonucleotides are given in HELM: sugar(base)linkage, 5' to 3'; d 2'-deoxyribose, r ribose, m 2'-O-methylribose, p phosphate. ss, as = sense and antisense strand

The substances below were run against Cacnb1 (rat) (assay: reporter assay of Huesken 2005). Details: siRNA.
Note: test concentration or dose not given here.

Substance	normalised inhibition (eCFP-eYFP dual reporter)
RNA1{r(C)p.r(U)p.r(U)p.r(G)p.r(G)p.r(A)p.r(A)p.r(G)p.r(C)p.r(C)p.r(U)p.r(A)p.r(C)p.r(U)p.r(G)p.r(G)p.r(A)p.r(A)p.r(G)p.d(T)p.d(T)}|RNA2{r(C)p.r(U)p.r(U)p.r(C)p.r(C)p.r(A)p.r(G)p.r(U)p.r(A)p.r(G)p.r(G)p.r(C)p.r(U)p.r(U)p.r(C)p.r(C)p.r(A)p.r(A)p.r(G)p.d(T)p.d(A)}$$$RNA1{StrandType:ss}|RNA2{StrandType:as}$	60.9%
RNA1{r(G)p.r(A)p.r(A)p.r(C)p.r(C)p.r(G)p.r(C)p.r(A)p.r(C)p.r(C)p.r(A)p.r(U)p.r(G)p.r(G)p.r(C)p.r(U)p.r(A)p.r(C)p.r(C)p.d(T)p.d(T)}|RNA2{r(G)p.r(G)p.r(U)p.r(A)p.r(G)p.r(C)p.r(C)p.r(A)p.r(U)p.r(G)p.r(G)p.r(U)p.r(G)p.r(C)p.r(G)p.r(G)p.r(U)p.r(U)p.r(C)p.d(A)p.d(G)}$$$RNA1{StrandType:ss}|RNA2{StrandType:as}$	49%
RNA1{r(G)p.r(A)p.r(G)p.r(A)p.r(U)p.r(C)p.r(C)p.r(C)p.r(U)p.r(A)p.r(U)p.r(G)p.r(G)p.r(A)p.r(G)p.r(G)p.r(U)p.r(C)p.r(U)p.d(T)p.d(T)}|RNA2{r(A)p.r(G)p.r(A)p.r(C)p.r(C)p.r(U)p.r(C)p.r(C)p.r(A)p.r(U)p.r(A)p.r(G)p.r(G)p.r(G)p.r(A)p.r(U)p.r(C)p.r(U)p.r(C)p.d(T)p.d(T)}$$$RNA1{StrandType:ss}|RNA2{StrandType:as}$	71.5%
RNA1{r(G)p.r(A)p.r(G)p.r(U)p.r(G)p.r(A)p.r(A)p.r(A)p.r(U)p.r(C)p.r(G)p.r(A)p.r(G)p.r(C)p.r(G)p.r(G)p.r(A)p.r(U)p.r(C)p.d(T)p.d(T)}|RNA2{r(G)p.r(A)p.r(U)p.r(C)p.r(C)p.r(G)p.r(C)p.r(U)p.r(C)p.r(G)p.r(A)p.r(U)p.r(U)p.r(U)p.r(C)p.r(A)p.r(C)p.r(U)p.r(C)p.d(T)p.d(G)}$$$RNA1{StrandType:ss}|RNA2{StrandType:as}$	84.9%
RNA1{r(G)p.r(C)p.r(A)p.r(G)p.r(A)p.r(G)p.r(U)p.r(C)p.r(C)p.r(U)p.r(A)p.r(C)p.r(A)p.r(C)p.r(G)p.r(A)p.r(G)p.r(C)p.r(C)p.d(T)p.d(T)}|RNA2{r(G)p.r(G)p.r(C)p.r(U)p.r(C)p.r(G)p.r(U)p.r(G)p.r(U)p.r(A)p.r(G)p.r(G)p.r(A)p.r(C)p.r(U)p.r(C)p.r(U)p.r(G)p.r(C)p.d(T)p.d(G)}$$$RNA1{StrandType:ss}|RNA2{StrandType:as}$	79.4%
RNA1{r(G)p.r(C)p.r(C)p.r(A)p.r(A)p.r(A)p.r(A)p.r(C)p.r(C)p.r(G)p.r(C)p.r(C)p.r(U)p.r(C)p.r(A)p.r(G)p.r(C)p.r(U)p.r(C)p.d(T)p.d(T)}|RNA2{r(G)p.r(A)p.r(G)p.r(C)p.r(U)p.r(G)p.r(A)p.r(G)p.r(G)p.r(C)p.r(G)p.r(G)p.r(U)p.r(U)p.r(U)p.r(U)p.r(G)p.r(G)p.r(C)p.d(G)p.d(C)}$$$RNA1{StrandType:ss}|RNA2{StrandType:as}$	54.1%
RNA1{r(G)p.r(C)p.r(C)p.r(C)p.r(A)p.r(C)p.r(A)p.r(G)p.r(G)p.r(G)p.r(C)p.r(A)p.r(A)p.r(A)p.r(U)p.r(A)p.r(C)p.r(A)p.r(G)p.d(T)p.d(T)}|RNA2{r(C)p.r(U)p.r(G)p.r(U)p.r(A)p.r(U)p.r(U)p.r(U)p.r(G)p.r(C)p.r(C)p.r(C)p.r(U)p.r(G)p.r(U)p.r(G)p.r(G)p.r(G)p.r(C)p.d(T)p.d(G)}$$$RNA1{StrandType:ss}|RNA2{StrandType:as}$	75.8%
RNA1{r(G)p.r(G)p.r(C)p.r(C)p.r(G)p.r(G)p.r(U)p.r(U)p.r(C)p.r(U)p.r(G)p.r(G)p.r(G)p.r(G)p.r(C)p.r(G)p.r(C)p.r(A)p.r(A)p.d(T)p.d(T)}|RNA2{r(U)p.r(U)p.r(G)p.r(C)p.r(G)p.r(C)p.r(C)p.r(C)p.r(C)p.r(A)p.r(G)p.r(A)p.r(A)p.r(C)p.r(C)p.r(G)p.r(G)p.r(C)p.r(C)p.d(C)p.d(A)}$$$RNA1{StrandType:ss}|RNA2{StrandType:as}$	79.6%
RNA1{r(G)p.r(G)p.r(C)p.r(U)p.r(C)p.r(C)p.r(U)p.r(G)p.r(G)p.r(G)p.r(A)p.r(A)p.r(G)p.r(A)p.r(G)p.r(G)p.r(A)p.r(G)p.r(G)p.d(T)p.d(T)}|RNA2{r(C)p.r(C)p.r(U)p.r(C)p.r(C)p.r(U)p.r(C)p.r(U)p.r(U)p.r(C)p.r(C)p.r(C)p.r(A)p.r(G)p.r(G)p.r(A)p.r(G)p.r(C)p.r(C)p.d(C)p.d(T)}$$$RNA1{StrandType:ss}|RNA2{StrandType:as}$	46.7%
RNA1{r(G)p.r(G)p.r(G)p.r(G)p.r(A)p.r(G)p.r(C)p.r(U)p.r(G)p.r(G)p.r(G)p.r(C)p.r(C)p.r(A)p.r(G)p.r(C)p.r(C)p.r(C)p.r(C)p.d(T)p.d(T)}|RNA2{r(G)p.r(G)p.r(G)p.r(G)p.r(C)p.r(U)p.r(G)p.r(G)p.r(C)p.r(C)p.r(C)p.r(A)p.r(G)p.r(C)p.r(U)p.r(C)p.r(C)p.r(C)p.r(C)p.d(G)p.d(G)}$$$RNA1{StrandType:ss}|RNA2{StrandType:as}$	19.2%
RNA1{r(G)p.r(U)p.r(A)p.r(C)p.r(U)p.r(G)p.r(C)p.r(A)p.r(G)p.r(A)p.r(G)p.r(G)p.r(C)p.r(U)p.r(C)p.r(A)p.r(U)p.r(C)p.r(A)p.d(T)p.d(T)}|RNA2{r(U)p.r(G)p.r(A)p.r(U)p.r(G)p.r(A)p.r(G)p.r(C)p.r(C)p.r(U)p.r(C)p.r(U)p.r(G)p.r(C)p.r(A)p.r(G)p.r(U)p.r(A)p.r(C)p.d(C)p.d(T)}$$$RNA1{StrandType:ss}|RNA2{StrandType:as}$	73.6%
RNA1{r(G)p.r(U)p.r(G)p.r(C)p.r(C)p.r(A)p.r(A)p.r(A)p.r(C)p.r(A)p.r(G)p.r(A)p.r(A)p.r(G)p.r(C)p.r(A)p.r(G)p.r(A)p.r(A)p.d(T)p.d(T)}|RNA2{r(U)p.r(U)p.r(C)p.r(U)p.r(G)p.r(C)p.r(U)p.r(U)p.r(C)p.r(U)p.r(G)p.r(U)p.r(U)p.r(U)p.r(G)p.r(G)p.r(C)p.r(A)p.r(C)p.d(T)p.d(G)}$$$RNA1{StrandType:ss}|RNA2{StrandType:as}$	82.1%
RNA1{r(G)p.r(U)p.r(G)p.r(C)p.r(G)p.r(G)p.r(A)p.r(G)p.r(G)p.r(G)p.r(U)p.r(G)p.r(G)p.r(U)p.r(G)p.r(G)p.r(G)p.r(C)p.r(C)p.d(T)p.d(T)}|RNA2{r(G)p.r(G)p.r(C)p.r(C)p.r(C)p.r(A)p.r(C)p.r(C)p.r(A)p.r(C)p.r(C)p.r(C)p.r(U)p.r(C)p.r(C)p.r(G)p.r(C)p.r(A)p.r(C)p.d(A)p.d(G)}$$$RNA1{StrandType:ss}|RNA2{StrandType:as}$	52.4%
RNA1{r(U)p.r(A)p.r(C)p.r(A)p.r(C)p.r(G)p.r(G)p.r(A)p.r(G)p.r(C)p.r(C)p.r(A)p.r(G)p.r(G)p.r(A)p.r(G)p.r(A)p.r(C)p.r(U)p.d(T)p.d(T)}|RNA2{r(A)p.r(G)p.r(U)p.r(C)p.r(U)p.r(C)p.r(C)p.r(U)p.r(G)p.r(G)p.r(C)p.r(U)p.r(C)p.r(C)p.r(G)p.r(U)p.r(G)p.r(U)p.r(A)p.d(G)p.d(A)}$$$RNA1{StrandType:ss}|RNA2{StrandType:as}$	54.9%
RNA1{r(U)p.r(A)p.r(C)p.r(A)p.r(U)p.r(C)p.r(C)p.r(G)p.r(C)p.r(U)p.r(G)p.r(A)p.r(G)p.r(A)p.r(G)p.r(G)p.r(C)p.r(A)p.r(G)p.d(T)p.d(T)}|RNA2{r(C)p.r(U)p.r(G)p.r(C)p.r(C)p.r(U)p.r(C)p.r(U)p.r(C)p.r(A)p.r(G)p.r(C)p.r(G)p.r(G)p.r(A)p.r(U)p.r(G)p.r(U)p.r(A)p.d(G)p.d(A)}$$$RNA1{StrandType:ss}|RNA2{StrandType:as}$	39.5%
RNA1{r(U)p.r(C)p.r(C)p.r(U)p.r(G)p.r(C)p.r(A)p.r(C)p.r(A)p.r(U)p.r(C)p.r(A)p.r(A)p.r(G)p.r(G)p.r(A)p.r(G)p.r(A)p.r(A)p.d(T)p.d(T)}|RNA2{r(U)p.r(U)p.r(C)p.r(U)p.r(C)p.r(C)p.r(U)p.r(U)p.r(G)p.r(A)p.r(U)p.r(G)p.r(U)p.r(G)p.r(C)p.r(A)p.r(G)p.r(G)p.r(A)p.d(A)p.d(G)}$$$RNA1{StrandType:ss}|RNA2{StrandType:as}$	94%
RNA1{r(U)p.r(C)p.r(G)p.r(A)p.r(C)p.r(A)p.r(G)p.r(A)p.r(G)p.r(C)p.r(A)p.r(C)p.r(G)p.r(U)p.r(G)p.r(C)p.r(C)p.r(C)p.r(C)p.d(T)p.d(T)}|RNA2{r(G)p.r(G)p.r(G)p.r(G)p.r(C)p.r(A)p.r(C)p.r(G)p.r(U)p.r(G)p.r(C)p.r(U)p.r(C)p.r(U)p.r(G)p.r(U)p.r(C)p.r(G)p.r(A)p.d(C)p.d(T)}$$$RNA1{StrandType:ss}|RNA2{StrandType:as}$	39.9%
RNA1{r(U)p.r(C)p.r(G)p.r(G)p.r(G)p.r(A)p.r(G)p.r(G)p.r(C)p.r(U)p.r(G)p.r(G)p.r(U)p.r(G)p.r(A)p.r(A)p.r(G)p.r(G)p.r(A)p.d(T)p.d(T)}|RNA2{r(U)p.r(C)p.r(C)p.r(U)p.r(U)p.r(C)p.r(A)p.r(C)p.r(C)p.r(A)p.r(G)p.r(C)p.r(C)p.r(U)p.r(C)p.r(C)p.r(C)p.r(G)p.r(A)p.d(T)p.d(C)}$$$RNA1{StrandType:ss}|RNA2{StrandType:as}$	73.7%
RNA1{r(U)p.r(G)p.r(G)p.r(A)p.r(C)p.r(A)p.r(G)p.r(C)p.r(C)p.r(U)p.r(U)p.r(C)p.r(G)p.r(C)p.r(C)p.r(U)p.r(G)p.r(C)p.r(U)p.d(T)p.d(T)}|RNA2{r(A)p.r(G)p.r(C)p.r(A)p.r(G)p.r(G)p.r(C)p.r(G)p.r(A)p.r(A)p.r(G)p.r(G)p.r(C)p.r(U)p.r(G)p.r(U)p.r(C)p.r(C)p.r(A)p.d(G)p.d(T)}$$$RNA1{StrandType:ss}|RNA2{StrandType:as}$	39.5%
RNA1{r(U)p.r(G)p.r(G)p.r(U)p.r(G)p.r(G)p.r(G)p.r(A)p.r(C)p.r(C)p.r(A)p.r(U)p.r(C)p.r(G)p.r(C)p.r(U)p.r(C)p.r(A)p.r(A)p.d(T)p.d(T)}|RNA2{r(U)p.r(U)p.r(G)p.r(A)p.r(G)p.r(C)p.r(G)p.r(A)p.r(U)p.r(G)p.r(G)p.r(U)p.r(C)p.r(C)p.r(C)p.r(A)p.r(C)p.r(C)p.r(A)p.d(G)p.d(G)}$$$RNA1{StrandType:ss}|RNA2{StrandType:as}$	71.2%
